Results taken from patent publication US20070098735A1, “Methods for the Elimination of Pathogens and Other Particulate Agents” (priority 2005, published 2007).

Columns and labels:
[1] = test system: full thickness surgical wounds on the dorsum of BALB/cJ mice; experiment: Closure of full thickness surgical wounds, percent wound closure; format: in vivo; details: day 2 post surgery; for wound healing on day 2: 30 μg/dose
Experimental: Surgery and Treatment. Mice were anesthetized using Ketamine (2.0 mg/mouse) and Xylazine (0.1 mg/mouse) were administered intraperitoneally (IP) and the dorsal skin was shaved. After sterile prepping of the area, a full thickness circular wound, 8 mm diameter, was made on the dorsal skin using a disposable biopsy punch (Miltex Inc, York, Pa.) on the midline of the dorsum approximately at the iliac crest. The mice were then randomly assigned into the treatment groups. Initial wound measurements were performed while the mice were still anesthetized. Mice were then treated on days 0, 2, 4, and 6 unless otherwise specified. All agents used as treatment were diluted in 0.5 ml of PBS and injected using a 25-gauge needle in the subcutaneous space in the nape of the neck. The surgical procedures, post-operative monitoring, and safety concerns were approved by the Institutional Animal Care and Usage Committee.
Measurements and Analysis. Wound healing of open wounds is a complex process with many parameters to consider. […] The wound surface area was determined by measuring the craniocaudal and lateromedial distances using vernier calipers in perpendicular axis on days 0, 2, 4, 6, 9, and 11 postoperatively unless noted. Changes in wound area were expressed as percent wound closure. Wound closure data was plotted as average percent wound closure ±SEM unless otherwise noted. All calculations and data analysis were performed using Microsoft Excel and Sigma Plot. Sigma Plot was used to perform Student's t-tests for reported P values.
Full thickness surgical wounds were created on the dorsum of BALB/cJ mice as described in Methods. Wounds were made on day 0. Subsequently, the wounds were treated with exogenous injections of HSP70, HSP90, gp96 (30 μg/dose) or buffer administered subcutaneously (SC) on days 0, 2, 4 and 6 following surgery (FIG. 6A). The wounds were measured on days 0, 2, 4, 6, 9, 11 unless otherwise noted. Wounds were measured serially, percent wound closure was calculated and plotted against time in order to quantitate the rate of healing by secondary intention. […] Data is plotted as average percent wound closure ±SEM on days indicated. Two mice from each treatment group (PBS (n=12), HSP70 (n=11), HSP90 (n=12), and gp96 (n=11)) were sacrificed for histology on days 2, 4, and 6 post-surgery (data not shown). The P values obtain using the Student's t-test.
Results are of average percent wound closure ±SEM on day 2 post surgery. The *P values were obtained using the Student's t-test by comparing HSP treatment to all of the non-HSP control treatments. The least significant P value was reported. […] Doses higher than 50 μg/dose were not tested.

[2] = test system: Murine macrophage lines (RAW264.7, J774.A1 or RAW264NO-); experiment: Phagocytosis assay in vitro (uptake of Alexa Fluor 488-labeled particles); format: cell-based; set-up: effect of LR-disrupting drugs on HSP70-mediated phagocytosis: dose or concentration left out as unconfirmed; details: for uptake of labeled S. cerevisiae as compared to treatment with HSP70 (specificity controls): equimolar to HSP70 100 μg/ml, BSA 100 μg/ml, concavalin A 6 μg/ml, adjuvants 10 μl/well, ADP, ATP 3 mM
Experimental: Phagocytosis Assay in vitro. RAW 264.7, RAW264.7 (NO-) and J774A.1 cells were cultured in DMEM or RPMI (RAW NO-) with 10% FCS, harvested, and washed. 3×10^5 cells/well were incubated in serum-free Earle's minimal essential medium (EMEM) in a 24-well plate for 1 hour at 37° C. Alexa Fluor® 488-labeled particles (inert polystyrene microspheres; or yeast, Saccharomyces cerevisiae or Gram-negative bacteria, Escherichia coli, 40 particles/macrophage) were added and co-incubated in a dark environment for 60 minutes in serum free EMEM with or without HSPs, LPS, or control proteins. At the end of 60 minutes incubation, the plate was covered in a dark container on ice. Specific measures were taken to exclude the fluorescence that resulted from particles that were outside of the cell or sticking to the surface of the cell. […] Specifically, trypan blue (0.8 mg/ml) was added for 60 seconds and plates were analyzed immediately using FluorImager SI (Molecular Dynamics/Amersham). Since the emission of Alexa Fluor® 488, about 519 nm at an excitation of about 490 nm, falls within the absorbance range of trypan blue (475-675 nm), the fluorescence of the sample only represents the intracellular fluorescence. External or surface-bound fluorescence is quenched. Using Student's t test, the results were analyzed and P-values were calculated.
HSP-mediated phagocytosis was quantified by measuring the internalized fluorescence measured by FluorImager SI and Relative Mean Fluorescence Intensity (RMFI) was compared between the treatment groups (as indicated). All the treatment groups were compared to medium alone using the Student's t test and significance denoted by P<0.01. The error bar represents one standard deviation. The results shown are a cumulative analysis of 3 experiments, 3 wells/group.

| Molecule | uptake of labeled S. cerevisiae as compared to treatment with HSP70 (specificity controls) [2] | further results |
| --- | --- | --- |
| O=c1[nH]c(=O)c2[nH]c(=O)[nH]c2[nH]1 [uric acid, reference compound] | – | wound healing on day 2 [1]: 13%; wound closure of non-HSP controls compared to PBS control [1]: not significantly different to the PBS control |
| Nc1ncnc2c1ncn2[C@@H]1O[C@H](COP(=O)(O)OP(=O)(O)O)[C@@H](O)[C@H]1O [ADP, adenosine diphosphate] | ineffective | – |
| beta galactosidase | None of control proteins used enhanced uptake | – |
| concavalin A | None of control proteins used enhanced uptake | – |
| C=CCn1c(=O)n([C@@H]2O[C@H](CO)[C@@H](O)[C@H]2O)c2nc(N)[nH]c(=O)c21 [LRB, Loxoribine] | – | dose dependence of inhibitory effect on HSP70-mediated phagocytosis ([2]; LRB 0-330 μM, HSP70 100 μg/ml): titratable by dose |
| C[C@@H]1[C@H](O)[C@@H](C)/C=C/C=C/CC/C=C/C=C/C=C/C=C/C(O[C@H]2O[C@H](C)[C@@H](O)[C@H](N)[C@@H]2O)CC2O[C@](O)(CC(O)C(O)CCC(O)CC(O)CC(O)CC(=O)O[C@H]1C)CC(O)C2C(=O)O (stereo partly drawn) [nystatin] | – | effect of LR-disrupting drugs on HSP70-mediated phagocytosis ([2]; nystatin or MCD, labeled yeast 40 particles/macrophage): HSP70-mediated phagocytosis was inhibited |
| bovine serum albumin [BSA] | None of control proteins used enhanced uptake | – |
| Nc1ncnc2c1ncn2[C@@H]1O[C@H](COP(=O)(O)OP(=O)(O)OP(=O)(O)O)[C@@H](O)[C@H]1O [ATP, adenosine triphosphate] | ineffective | – |
| phosphorylase B (protein, UniProt P00489 2-843, looked up, control protein of molecular weight corresponding to the HSPs) Glycogen phosphorylase, …: SRPLSDQEKRKQISVRGLAGVENVTELKKNFNRHLHFTLVKDRNVATPRDYYFALAHTVRDHLVGRWIRTQQHYYEKDPKRIYYLSLEFYMGRTLQNTMVNLALENACDEATYQLGLDMEELEEIEEDAGLGNGGLGRLAACFLDSMATLGLAAYGYGIRYEFGIFNQKICGGWQMEEADDWLRYGNPWEKARPEFTLPVHFYGRVEHTSQGAKWVDTQVVLAMPYDTPVPGYRNNVVNTMRLWSAKAPNDFNLKDFNVGGYIQAVLDRNLAENISRVLYPNDNFFEGKELRLKQEYFVVAATLQDIIRRFKSSKFGCRDPVRTNFDAFPDKVAIQLNDTHPSLAIPELMRVLVDLERLDWDKAWEVTVKTCAYTNHTVLPEALERWPVHLLETLLPRHLQIIYEINQRFLNRVAAAFPGDVDRLRRMSLVEEGAVKRINMAHLCIAGSHAVNGVARIHSEILKKTIFKDFYELEPHKFQNKTNGITPRRWLVLCNPGLAEIIAERIGEEYISDLDQLRKLLSYVDDEAFIRDVAKVKQENKLKFAAYLEREYKVHINPNSLFDVQVKRIHEYKRQLLNCLHVITLYNRIKKEPNKFVVPRTVMIGGKAAPGYHMAKMIIKLITAIGDVVNHDPVVGDRLRVIFLENYRVSLAEKVIPAADLSEQISTAGTEASGTGNMKFMLNGALTIGTMDGANVEMAEEAGEENFFIFGMRVEDVDRLDQRGYNAQEYYDRIPELRQIIEQLSSGFFSPKQPDLFKDIVNMLMHHDRFKVFADYEEYVKCQERVSALYKNPREWTRMVIRNIATSGKFSSDRTIAQYAREIWGVEPSRQRLPAPDEKIP | None of control proteins used enhanced uptake | wound healing on day 2 [1]: 19%; wound closure of non-HSP controls compared to PBS control [1]: not significantly different to the PBS control |
